Source: US20110257220A1, “3,11 b-cis-Dihydrotetrabenazine for the Treatment of Schizophrenia and Other Psychoses” (CAMBRIDGE LABORATORIES (IRELAND) LIMITED, priority 2005, published 2011)
Entries after “also recorded” stand apart in the source; their conditions may differ.

How the values were obtained:
[1] = molecular target: T1, Dopamine Transporter (DAT) (Homo sapiens, UniProt Q01959); test: Dopamine transporter radioligand binding ([125I] RTI-55); settings: 10 μM solution; for inhibition at 10 µM: read-out: Percentage Inhibition of Specific Binding, DAT
T1 construct: expressed in transfected cells; host or cells: CHO cells
Protocol: (§1) The four dihydrotetrabenazine isomers A, B, C and D were subjected to specific binding assays to test their ability to bind to the receptors and transporter proteins described below. The results are set out in Table 5
(j) Dopamine Transporter (DAT):
• Reference: Giros et al., Trends Pharmacol. Sci., 14, 43-49 (1993) Gu et al., J. Biol. Chem., 269(10):7124-7130 (1994) • Source: Human recombinant CHO cells • Ligand: 0.15 nM [^125I]

Adrenergic α2B Receptor = molecular target: T2, Adrenergic α2B Receptor (Homo sapiens, UniProt P18089); test: Adrenergic α2B receptor radioligand binding ([3H] Rauwolscine); settings: 10 μM solution; for inhibition at 10 µM: read-out: Percentage Inhibition of Specific Binding, α2B Receptor
T2 construct: expressed in transfected cells; host or cells: CHO-K1 cells
T2 sequence (P18089 1-450): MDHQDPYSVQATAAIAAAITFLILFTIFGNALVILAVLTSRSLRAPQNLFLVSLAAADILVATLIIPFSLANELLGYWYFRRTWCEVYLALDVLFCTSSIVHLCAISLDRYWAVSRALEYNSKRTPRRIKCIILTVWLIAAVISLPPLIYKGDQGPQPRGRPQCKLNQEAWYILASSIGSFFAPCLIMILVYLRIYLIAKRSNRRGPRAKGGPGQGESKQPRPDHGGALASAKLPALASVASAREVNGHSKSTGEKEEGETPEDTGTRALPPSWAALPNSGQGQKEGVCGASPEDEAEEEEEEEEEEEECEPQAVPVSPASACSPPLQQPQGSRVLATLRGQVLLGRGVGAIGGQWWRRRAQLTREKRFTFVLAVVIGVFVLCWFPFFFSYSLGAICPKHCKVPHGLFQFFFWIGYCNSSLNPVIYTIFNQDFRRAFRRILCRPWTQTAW
Protocol: as §1
(b) Adrenergic α2B Receptor:
• Reference: S. Uhlen et al., Eur. I Pharmacol., 33 (1): 93-1-1 (1998) • Source: Human recombinant CHO-K1 cells • Ligand: 2.5 nM [3H]

Sigma σ2 Receptor = molecular target: T3, Sigma σ2 Receptor (Rattus norvegicus, UniProt Q5U3Y7); test: Sigma σ2 receptor radioligand binding ([3H] Ifenprodil); design: species or system Wistar rat; settings: 10 μM solution; for inhibition at 10 µM: read-out: Percentage Inhibition of Specific Binding, σ2 Receptor
T3 construct: from tissue; host or cells: Wistar rat brain
T3 sequence (Q5U3Y7 1-176): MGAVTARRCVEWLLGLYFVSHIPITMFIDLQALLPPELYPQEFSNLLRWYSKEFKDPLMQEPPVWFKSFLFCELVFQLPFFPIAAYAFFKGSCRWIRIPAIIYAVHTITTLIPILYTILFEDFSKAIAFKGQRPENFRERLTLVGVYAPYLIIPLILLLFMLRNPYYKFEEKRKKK
Protocol: as §1
• Reference: Hashimoto et al., Eur. J. Pharmacol., 236:159-163, (1993) • Source: Wistar rat brain • Ligand: 3 nM [3H]

[2] = tested on: female hooded-Lister rats; test: Novel object recognition (NOR) task, sub-chronic PCP-induced cognitive deficit; assay type: in vivo, rat
Excerpt: Certain pre-clinical tests allow the observation of relatively subtle cognitive deficits in the rat that resemble cognitive symptoms in subjects with schizophrenia. The cognitive deficits observed are seen in behaviours such as working memory deficits which may be measured by recognition tasks such as the novel object recognition (NOR) paradigm. A recognition memory task allows the comparison between presented stimuli and previously stored information. Ennaceur & Delacour, Behav. Brain Res. 31: 47-59 (1988) described the NOR test in rats which was based on the differential exploration of familiar and new objects. The NOR test is a non-rewarded, ethologically relevant paradigm based on the spontaneous exploratory behaviour of rats which measures working memory. Each session consists of two trials. In the first trial, the rats are exposed to two identical objects in an open field. During the second trial, rats are exposed to two dissimilar objects, one familiar object from the first trial and one new object. Object recognition in rats can be measured as the difference in time spent exploring the familiar and the new object.
The abovementioned rodent model was used to assess the effects of the Isomer A on sub-chronic PCP-induced deficits in working memory using the novel object recognition (NOR) paradigm. The working hypothesis was that both acute and sub-chronic treatment with Isomer A will attenuate the selective working memory deficit induced by sub-chronic PCP as measured in the NOR test paradigm.
Rats are allowed to habituate to the empty test box and the behavioural test room environment for 1 hour on day 1. Prior to behavioural testing on day 2 rats are given a further 3 minutes habituation.
Following the 3 minute habituation period, the rats are given two 3 minute trials (T1 and T2) which are separated by a 1 minute inter-trial interval in the home cage during which the objects are changed.
In this trial, the animals are allowed to explore two identical objects (A1 and A2) for 3 minutes.
In this trial, the animals explore a familiar object (A) from T1 and a novel object (B) for 3 minutes. The familiar object presented during T2 is a duplicate of the object presented in T1 in order to avoid any olfactory trails.
The object exploration is defined by animals licking, sniffing or touching the object with the forepaws whilst sniffing, but not leaning against, turning around, standing or sitting on the object. The exploration time (s) of each object (A1, A2, A and B) in each trial are recorded using two stopwatches and the following factors are calculated: • Total exploration time of both objects in the acquisition trial (s). • Total exploration time of both objects in the retention trial (s). • Habituation of exploratory activity. The LMA includes the exploration time, as measured by the number of lines crossed, for both the trials. • Discrimination index, which is calculated as shown below;
(time spent exploring novel object−time spent exploring familiar object)÷total time spent in exploring the objects
Behaviour in all trials was recorded on video for subsequent blind scoring.
50 female hooded-Lister rats (Harlan, UK) were used as subjects for these studies. Rats were housed in groups of 5 under standard laboratory conditions under a 12 hr light:dark cycle, lights on at 0700 hr. All testing was carried out in the light phase. Food and water were freely provided. […]

Dopamine D3 Receptor = molecular target: T4, Dopamine D3 Receptor (Homo sapiens, UniProt P35462); test: Dopamine D3 receptor radioligand binding ([3H] Spiperone); settings: 10 μM solution; for inhibition at 10 µM: read-out: Percentage Inhibition of Specific Binding, D3 Receptor
T4 construct: expressed in transfected cells; host or cells: CHO cells
Protocol: as §1
(e) Dopamine D3 Receptor:
• Reference: Sokoloff et al., Nature, 347:146-151, (1990) • Source: Human recombinant CHO cells • Ligand: 0.7 nM [3H]

T1 sequence (Q01959 whole entry): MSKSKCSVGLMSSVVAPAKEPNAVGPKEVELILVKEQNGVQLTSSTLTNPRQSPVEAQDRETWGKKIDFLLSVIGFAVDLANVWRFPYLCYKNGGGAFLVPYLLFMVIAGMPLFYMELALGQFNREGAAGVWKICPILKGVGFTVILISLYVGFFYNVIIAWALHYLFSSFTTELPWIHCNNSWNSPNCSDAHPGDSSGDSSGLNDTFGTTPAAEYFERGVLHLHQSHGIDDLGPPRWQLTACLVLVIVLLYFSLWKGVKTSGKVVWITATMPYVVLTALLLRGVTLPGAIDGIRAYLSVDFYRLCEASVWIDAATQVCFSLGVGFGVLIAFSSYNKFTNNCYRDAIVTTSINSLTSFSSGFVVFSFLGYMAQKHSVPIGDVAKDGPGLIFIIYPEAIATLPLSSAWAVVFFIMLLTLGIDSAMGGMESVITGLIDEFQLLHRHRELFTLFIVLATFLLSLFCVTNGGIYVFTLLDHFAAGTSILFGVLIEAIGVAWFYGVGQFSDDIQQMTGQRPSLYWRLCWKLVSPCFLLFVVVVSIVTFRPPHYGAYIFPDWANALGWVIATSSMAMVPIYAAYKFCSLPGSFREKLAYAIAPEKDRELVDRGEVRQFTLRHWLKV
T4 sequence (P35462 whole entry): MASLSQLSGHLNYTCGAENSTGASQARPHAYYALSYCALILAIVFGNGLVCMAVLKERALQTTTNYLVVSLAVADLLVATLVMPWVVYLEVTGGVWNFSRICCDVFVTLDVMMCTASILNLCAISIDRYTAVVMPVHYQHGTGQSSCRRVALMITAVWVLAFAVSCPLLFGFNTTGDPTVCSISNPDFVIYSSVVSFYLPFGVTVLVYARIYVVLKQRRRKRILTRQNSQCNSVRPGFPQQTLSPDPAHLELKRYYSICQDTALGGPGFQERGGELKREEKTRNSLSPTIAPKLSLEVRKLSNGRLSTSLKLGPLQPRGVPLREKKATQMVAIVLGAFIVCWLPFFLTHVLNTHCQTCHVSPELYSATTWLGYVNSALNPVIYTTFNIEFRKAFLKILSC

Row | Structure (SMILES) | inhibition at 10 µM [1] | inhibition at 10 µM (Adrenergic α2B Receptor) | inhibition at 10 µM (Sigma σ2 Receptor) | Sedation (observation of behaviour) ([2]; 30 mg/kg Isomer A p.o., rats in NOR arena) | Locomotor activity in the test arena (number of lines crossed, T1+T2) ([2]; 30 mg/kg Isomer A p.o., sub-chronic PCP rats, FIG. 4) | Attenuation of sub-chronic PCP-induced deficit, retention phase (exploration time of familiar vs novel object) ([2]; Isomer A 3-30 mg/kg p.o. acute, 30 min before test, sub-chronic PCP 2 mg/kg i.p. twice daily 7 days, FIG. 2) | Exploration of two identical objects in the acquisition phase (T1) ([2]; Isomer A 3-30 mg/kg p.o., sub-chronic PCP rats, FIG. 1) | inhibition at 10 µM (Dopamine D3 Receptor) | Percentage Inhibition of Specific Binding, DAT [1] | Percentage Inhibition of Specific Binding, α2B Receptor (Adrenergic α2B Receptor) | Percentage Inhibition of Specific Binding, σ2 Receptor (Sigma σ2 Receptor) | Percentage Inhibition of Specific Binding, D3 Receptor (Dopamine D3 Receptor)
1 | COc1cc2c(cc1OC)[C@@H]1C[C@@H](O)[C@H](CC(C)C)CN1CC2 (single isomer, unassigned) [Isomer A] | 3% | 44% | 64% | did not appear sedated | significant effect to reduce locomotor activity | has efficacy to attenuate the sub-chronic PCP-induced deficit; also recorded: significant at the highest dose | no effect | 69% | – | – | – | –
2 | COc1cc2c(cc1OC)[C@H]1C[C@H](O)[C@@H](CC(C)C)CN1CC2 (single isomer, unassigned) [Isomer B] | 4% | 14% | 64% | – | – | – | – | 7% | – | – | – | –
3 | COc1cc2c(cc1OC)C1CC(O)C(CC(C)C)CN1CC2 (single isomer, unassigned) [Isomer C] | -2% | -7% | 61% | – | – | – | – | 9% | – | – | – | –
4 | COc1cc2c(cc1OC)[C@H]1C[C@@H](O)[C@H](CC(C)C)CN1CC2 (single isomer, unassigned; isomer d) [Isomer D] | – | – | – | – | – | – | – | – | 2% | 50% | 69% | 63%
